Experimental data: PubChem BioAssay AID1195 (EPA DSSTox, 2008)

Tested on: human maximum recommended daily dose, FDA database
Assay: DSSTox (FDAMDD) FDA Maximum (Recommended) Daily Dose Database
Conditions: hits give low values
Summary of the method: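 MRDD values come from clinical trials with daily oral dosing, usually for 3–12 months, for the average adult, in mg/day converted to mg/kg-bw/day assuming 60 kg. Antineoplastic mg/m2 doses are divided by 37. Activity score maps log10(1/MRDD mmol) onto 1–100.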

[1] = TherapeuticCategory: antibacterial
[2] = TherapeuticCategory: antidepressant
[3] = TherapeuticCategory: anti inflammatory
[4] = TherapeuticCategory: antineoplastic
[5] = TherapeuticCategory: diagnostic aid

CCOC(=O)C1=C(C)NC(C)=C(C(=O)OC)C1c1cccc(Cl)c1Cl (stereo not drawn)
maximum recommended daily dose (mmol/kg-bw/day) (TherapeuticCategory: antihypertensive, antianginal): 0.000867

CN(C)[C@@H]1C(=O)C(C(N)=O)=C(O)[C@@]2(O)C(=O)C3=C(O)c4c(O)cccc4[C@@](C)(O)[C@H]3[C@H](O)[C@@H]12
maximum recommended daily dose (mmol/kg-bw/day) [1]: 0.0671

C[C@](N)(Cc1ccc(O)cc1)C(=O)O
maximum recommended daily dose (mmol/kg-bw/day) (TherapeuticCategory: tyrosine hydroxylase inhibitor): 0.342

CN(C)CCOC(c1ccccc1)c1ccccc1
maximum recommended daily dose (mmol/kg-bw/day) (TherapeuticCategory: antihistaminic): 0.00326

c1ccc(C2(N3CCCCC3)CCCCC2)cc1
maximum recommended daily dose (mmol/kg-bw/day) (TherapeuticCategory: analgesic, anesthetic): 0.000822

CNCCC(Oc1ccc(C(F)(F)F)cc1)c1ccccc1 (stereo not drawn)
maximum recommended daily dose (mmol/kg-bw/day) [2]: 0.0043

O=C(O)CN(CCN(CC(=O)O)CC(=O)O)CCN(CC(=O)O)CC(=O)O
maximum recommended daily dose (mmol/kg-bw/day) (TherapeuticCategory: chelating agent): 0.0425

CC(C)C[C@H]1C(=O)N2CCC[C@H]2[C@]2(O)O[C@](NC(=O)[C@@H]3C=C4c5cccc6[nH]c(Br)c(c56)C[C@H]4N(C)C3)(C(C)C)C(=O)N12
maximum recommended daily dose (mmol/kg-bw/day) (TherapeuticCategory: enzyme inhibitor, antiparkinsonian): 0.00255

C=CC[C@]1(O)CC[C@H]2[C@@H]3CCC4=CCCC[C@@H]4[C@H]3CC[C@@]21C
maximum recommended daily dose (mmol/kg-bw/day) (TherapeuticCategory: progestogen): 0.000832

CO[C@H]1/C=C/O[C@@]2(C)Oc3c(C)c(O)c4c(O)c(c(/C=N/N5CCN(C)CC5)c(O)c4c3C2=O)NC(=O)/C(C)=C\C=C\[C@H](C)[C@H](O)[C@@H](C)[C@@H](O)[C@@H](C)[C@H](OC(C)=O)[C@@H]1C
maximum recommended daily dose (mmol/kg-bw/day) [1]: 0.0243

COc1ccc2c(c1)N(C[C@H](C)CN(C)C)c1ccccc1S2
maximum recommended daily dose (mmol/kg-bw/day) (TherapeuticCategory: analgesic): 0.0101

COc1cccc(C(=O)CCN[C@@H](C)[C@H](O)c2ccccc2)c1
maximum recommended daily dose (mmol/kg-bw/day) (TherapeuticCategory: antianginal): 0.00255

CCCCNC(=O)NS(=O)(=O)c1ccc(C)cc1
maximum recommended daily dose (mmol/kg-bw/day) (TherapeuticCategory: hypoglycemic agent): 0.123

O=C1CN(/N=C/c2ccc([N+](=O)[O-])o2)C(=O)N1
maximum recommended daily dose (mmol/kg-bw/day) [1]: 0.028

CN1CCC(CN2c3ccccc3Sc3ccccc32)C1 (stereo not drawn)
maximum recommended daily dose (mmol/kg-bw/day) (TherapeuticCategory: antipruritic): 0.00169

Cc1cccc(C)c1NC(=O)C1CCCCN1C (stereo not drawn)
maximum recommended daily dose (mmol/kg-bw/day) (TherapeuticCategory: local anesthetic): 0.0271

CCCCCCc1ccc(O)cc1O
maximum recommended daily dose (mmol/kg-bw/day) (TherapeuticCategory: antihelmintic, antiseptic): 0.0858

CCN(C(C)=O)c1cccc(-c2ccnc3c(C#N)cnn23)c1
maximum recommended daily dose (mmol/kg-bw/day) (TherapeuticCategory: hypnotic, sedative): 0.00164

CCCCC1C(=O)NN(c2ccccc2)C1=O (stereo not drawn)
maximum recommended daily dose (mmol/kg-bw/day) [3]: 0.0215

CC(C(=O)O)c1ccc(C(=O)c2ccccc2)s1 (stereo not drawn)
maximum recommended daily dose (mmol/kg-bw/day) [3]: 0.0384

CC[C@H](OC(C)=O)C(C[C@H](C)N(C)C)(c1ccccc1)c1ccccc1
maximum recommended daily dose (mmol/kg-bw/day) (TherapeuticCategory: treatment of narcotic addiction): 0.0113

CC[C@H](CC[C@@H](C)[C@H]1CC[C@H]2[C@@H]3CC=C4C[C@@H](O)CC[C@]4(C)[C@H]3CC[C@]12C)C(C)C
maximum recommended daily dose (mmol/kg-bw/day) (TherapeuticCategory: anticholinesteremic): 0.241

Fc1ccc([C@@H]2CCNC[C@H]2COc2ccc3c(c2)OCO3)cc1
maximum recommended daily dose (mmol/kg-bw/day) [2]: 0.00253

O=NN(CCCl)C(=O)N[C@@H]1[C@@H](O)[C@H](O)[C@@H](CO)O[C@@H]1O
maximum recommended daily dose (mmol/kg-bw/day) [4]: 0.0129

O=c1ccc2ccccc2o1
maximum recommended daily dose (mmol/kg-bw/day) (TherapeuticCategory: pharmaceutic aid): 0.0114

CC[C@]1(O)CC[C@H]2[C@@H]3CCC4=CCCC[C@@H]4[C@H]3CC[C@@]21C
maximum recommended daily dose (mmol/kg-bw/day) (TherapeuticCategory: anabolic): 0.000231

Cc1c(-c2ccccc2)oc2c(C(=O)OCCN3CCCCC3)cccc2c1=O
maximum recommended daily dose (mmol/kg-bw/day) (TherapeuticCategory: antispasmodic): 0.034

CNC(=O)c1c(I)c(NC(C)=O)c(I)c(C(=O)O)c1I
maximum recommended daily dose (mmol/kg-bw/day) [5]: 0.163

CC(COc1ccccc1)N(CCCl)Cc1ccccc1 (stereo not drawn)
maximum recommended daily dose (mmol/kg-bw/day) (TherapeuticCategory: antihypertensive): 0.00658

CC[C@@]1(O)C[C@H](O[C@H]2C[C@H](N(C)C)[C@H](O[C@H]3C[C@H](O)[C@H](O[C@H]4CCC(=O)[C@H](C)O4)[C@H](C)O3)[C@H](C)O2)c2c(cc3c(c2O)C(=O)c2c(O)cccc2C3=O)[C@H]1C(=O)OC
maximum recommended daily dose (mmol/kg-bw/day) [4]: 0.00333

CC(=O)N(CC(C)C(=O)O)c1c(I)cc(I)c(N)c1I (stereo not drawn)
maximum recommended daily dose (mmol/kg-bw/day) [5]: 0.122

NCC[C@H](O)C(=O)N[C@@H]1C[C@H](N)[C@@H](O[C@H]2O[C@H](CN)[C@@H](O)[C@H](O)[C@H]2O)[C@H](O)[C@H]1O[C@H]1O[C@H](CO)[C@@H](O)[C@H](N)[C@H]1O
maximum recommended daily dose (mmol/kg-bw/day) [1]: 0.0256

CN(C)C(=N)N=C(N)N
maximum recommended daily dose (mmol/kg-bw/day) (TherapeuticCategory: antidiabetic): 0.387
